From patent US20260212886A1, “MAGNETIC RECORDING MEDIUM AND CARTRIDGE” (Sony Group Corporation, priority 2023, published 2026)

assay: Acid dissociation constant (pKa) by potentiometric titration (JIS K 0070:1992)
Excerpt: The acid dissociation constant (pKa) is a parameter indicating the degree of dissociation of an acid. When the ionization constant of an acid is Ka, the acid dissociation constant is defined by pKa=−log10 Ka.

| Compound | pKa |
| --- | --- |
| O=C(O)c1cccc(C(=O)O)c1 [Isophthalic acid, isophthalic acid] | ≤ 5 |
| O=P(O)(O)c1ccccc1 [Phenylphosphonic acid] | ≤ 5 |
| O=C(O)CC(O)(CC(=O)O)C(=O)O [Citric acid, citric acid] | ≤ 5 |
| O=C(O)c1ccc(O)cc1 [4-hydroxybenzoic acid] | ≤ 5 |
